As a reminder, the Kd is the constant that tells how readily two partners part at equilibrium. Higher therefore signals lower affinity.

Positions count from the first letter of the chain named.

Our source for the Kd values is article PMC8457666 (Science Advances, 2021).

Test [1] concerns the target T1, WzcCDΔC (Escherichia coli, UniProt P76387, K540M).
T1 sequence (P76387 447-704 K540M limits assumed): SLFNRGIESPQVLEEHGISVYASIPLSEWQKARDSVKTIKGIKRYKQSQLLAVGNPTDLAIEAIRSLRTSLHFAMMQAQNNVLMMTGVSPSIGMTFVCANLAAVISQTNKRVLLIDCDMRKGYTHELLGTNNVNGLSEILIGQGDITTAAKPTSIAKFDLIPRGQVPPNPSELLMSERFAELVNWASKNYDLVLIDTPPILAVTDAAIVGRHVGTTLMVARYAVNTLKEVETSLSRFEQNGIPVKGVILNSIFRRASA
As to the kind of experiment: isothermal titration calorimetry, one-site model. It counts as binding. For orientation: ITC needs no label: the signal is the heat of the interaction.

Test [2] addresses T2, WzcCDΔC (Escherichia coli, UniProt P76387).
T2 sequence (P76387 447-704 limits assumed): T1 sequence (P76387 447-704 K540M limits assumed) with M94K
As to the kind of experiment: isothermal titration calorimetry, one-site model. The class given is binding.

With `Nc1ncnc2c1ncn2[C@@H]1O[C@H](COP(=O)(O)OP(=O)(O)O)[C@@H](O)[C@H]1O` [ADP], the dissociation constant Kd on WzcCDΔC [1] came out at 500 ± 200 nM; on WzcCDΔC [2] it was 2600 ± 1100 nM.
